The text below walks through data of ChEMBL document CHEMBL4257082, “Nhe3-binding compounds and methods for inhibiting phosphate transport” (2016).

Data set [1] relates to Rattus norvegicus. In words: In vivo inhibition of NHE3 in Sprague-Dawley rat assessed as inhibition of sodium absorption from intestinal lumen by measuring urinary sodium concentration at 10 mg/kg, po via gavage measured after 16 hrs relative to control. The format is functional. On the set-up: scale not given: the % may be the effect or the level left.
Data set [2] concerns Rattus norvegicus. In words: In vivo inhibition of NHE3 in Sprague-Dawley rat assessed as inhibition of sodium absorption from intestinal lumen by measuring urinary sodium concentration at 3 mg/kg, po via gavage measured after 16 hrs relative to control. More on the design: scale not given: the % may be the effect or the level left. The format is functional.
The test system of data set [3] is Rattus norvegicus. In words: Decrease in phosphorus urinary excretion in dietary salt-induced partial renal ablation Sprague-Dawley rat model of chronic kidney disease at 0.1 to 3 mg/kg/day added to normal chow pellets. The data set is classed as functional, organism-based.
Data set [4] relates to Rattus norvegicus. In words: Decrease in calcium urinary excretion in dietary salt-induced partial renal ablation Sprague-Dawley rat model of chronic kidney disease at 0.1 to 3 mg/kg/day added to normal chow pellets. The format is functional, organism-based.
A short description of data set [5]: Oral bioavailability in human. The format is ADME, organism-based. The note with it: in vivo.
The subject of data set [6] is Rattus norvegicus. In words: In vivo inhibition of NHE3 in rat assessed as inhibition of 33Pi uptake at 10 mg/kg, po measured up to 120 mins. The format is functional, organism-based.
Data set [7] addresses Sodium/hydrogen exchanger 1 (Rattus norvegicus, UniProt P26431). In words: Inhibition of rat NHE1.
In data set [8] the target is T1, Sodium/hydrogen exchanger 2 (Oryctolagus cuniculus, UniProt P50482).
T1 sequence (P50482 whole entry): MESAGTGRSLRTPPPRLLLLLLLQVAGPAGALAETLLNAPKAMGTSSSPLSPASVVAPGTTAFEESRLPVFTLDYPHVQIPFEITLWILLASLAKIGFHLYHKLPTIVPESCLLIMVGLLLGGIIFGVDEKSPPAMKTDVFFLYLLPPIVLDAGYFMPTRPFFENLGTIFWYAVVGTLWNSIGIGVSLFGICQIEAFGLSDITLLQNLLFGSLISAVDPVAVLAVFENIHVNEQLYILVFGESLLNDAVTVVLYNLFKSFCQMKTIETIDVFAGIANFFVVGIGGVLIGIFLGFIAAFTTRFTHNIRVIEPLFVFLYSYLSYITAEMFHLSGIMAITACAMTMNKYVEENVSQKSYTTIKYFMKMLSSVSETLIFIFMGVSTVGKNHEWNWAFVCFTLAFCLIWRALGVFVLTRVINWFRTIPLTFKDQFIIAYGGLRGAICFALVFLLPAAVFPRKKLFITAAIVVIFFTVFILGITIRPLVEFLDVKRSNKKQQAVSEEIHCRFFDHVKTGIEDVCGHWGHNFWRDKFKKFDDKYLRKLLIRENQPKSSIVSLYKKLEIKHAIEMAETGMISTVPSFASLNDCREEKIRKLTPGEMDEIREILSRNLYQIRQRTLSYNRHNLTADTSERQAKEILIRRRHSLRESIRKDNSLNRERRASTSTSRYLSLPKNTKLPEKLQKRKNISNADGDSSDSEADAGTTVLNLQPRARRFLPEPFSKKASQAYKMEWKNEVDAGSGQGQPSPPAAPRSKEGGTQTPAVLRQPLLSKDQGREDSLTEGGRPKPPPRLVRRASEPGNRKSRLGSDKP
In words: Inhibition of rabbit NHE2.

Data set [9] concerns the target Sodium/hydrogen exchanger 3 (Rattus norvegicus, UniProt P26433). In words: Inhibition of rat NHE3.
Data set [10] addresses T2, Sodium/hydrogen exchanger 5 (Homo sapiens, UniProt Q14940).
T2 sequence (Q14940 whole entry): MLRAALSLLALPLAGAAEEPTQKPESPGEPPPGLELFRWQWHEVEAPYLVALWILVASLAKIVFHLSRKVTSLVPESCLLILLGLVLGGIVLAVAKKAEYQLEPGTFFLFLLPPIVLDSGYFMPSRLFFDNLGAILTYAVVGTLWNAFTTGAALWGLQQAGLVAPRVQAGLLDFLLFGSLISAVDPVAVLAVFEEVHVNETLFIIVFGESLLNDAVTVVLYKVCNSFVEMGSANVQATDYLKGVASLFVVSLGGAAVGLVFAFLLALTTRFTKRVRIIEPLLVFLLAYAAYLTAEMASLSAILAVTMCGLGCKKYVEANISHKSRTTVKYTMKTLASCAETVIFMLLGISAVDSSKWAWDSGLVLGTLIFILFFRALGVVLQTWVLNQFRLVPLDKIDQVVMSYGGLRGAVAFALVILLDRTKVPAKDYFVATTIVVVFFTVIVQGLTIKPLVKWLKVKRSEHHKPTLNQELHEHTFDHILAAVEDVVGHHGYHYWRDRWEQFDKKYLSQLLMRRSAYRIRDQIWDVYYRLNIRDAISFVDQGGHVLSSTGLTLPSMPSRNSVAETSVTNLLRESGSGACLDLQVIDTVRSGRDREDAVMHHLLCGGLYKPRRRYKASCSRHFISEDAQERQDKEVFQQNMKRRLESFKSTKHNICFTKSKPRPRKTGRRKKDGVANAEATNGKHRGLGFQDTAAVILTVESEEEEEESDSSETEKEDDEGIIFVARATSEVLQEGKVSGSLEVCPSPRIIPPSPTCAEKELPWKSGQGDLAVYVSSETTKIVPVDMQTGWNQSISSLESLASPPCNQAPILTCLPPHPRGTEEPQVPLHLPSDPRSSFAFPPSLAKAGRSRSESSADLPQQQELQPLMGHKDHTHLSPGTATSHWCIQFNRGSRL
In words: Inhibition of NHE5 (unknown origin).

Data set [11] concerns Rattus norvegicus. In words: In vivo inhibition of NHE3 in Sprague-Dawley rat assessed as inhibition of sodium absorption from intestinal lumen by measuring urinary sodium concentration at 1 mg/kg, po via gavage measured after 16 hrs relative to control. The format is functional. More on the design: scale not given: the % may be the effect or the level left.

The structures appear in SMILES notation. Active and inactive are the calls of the source. No cut-off for these calls is given here.

Chain of Sodium/hydrogen exchanger 1 (P26431 whole entry): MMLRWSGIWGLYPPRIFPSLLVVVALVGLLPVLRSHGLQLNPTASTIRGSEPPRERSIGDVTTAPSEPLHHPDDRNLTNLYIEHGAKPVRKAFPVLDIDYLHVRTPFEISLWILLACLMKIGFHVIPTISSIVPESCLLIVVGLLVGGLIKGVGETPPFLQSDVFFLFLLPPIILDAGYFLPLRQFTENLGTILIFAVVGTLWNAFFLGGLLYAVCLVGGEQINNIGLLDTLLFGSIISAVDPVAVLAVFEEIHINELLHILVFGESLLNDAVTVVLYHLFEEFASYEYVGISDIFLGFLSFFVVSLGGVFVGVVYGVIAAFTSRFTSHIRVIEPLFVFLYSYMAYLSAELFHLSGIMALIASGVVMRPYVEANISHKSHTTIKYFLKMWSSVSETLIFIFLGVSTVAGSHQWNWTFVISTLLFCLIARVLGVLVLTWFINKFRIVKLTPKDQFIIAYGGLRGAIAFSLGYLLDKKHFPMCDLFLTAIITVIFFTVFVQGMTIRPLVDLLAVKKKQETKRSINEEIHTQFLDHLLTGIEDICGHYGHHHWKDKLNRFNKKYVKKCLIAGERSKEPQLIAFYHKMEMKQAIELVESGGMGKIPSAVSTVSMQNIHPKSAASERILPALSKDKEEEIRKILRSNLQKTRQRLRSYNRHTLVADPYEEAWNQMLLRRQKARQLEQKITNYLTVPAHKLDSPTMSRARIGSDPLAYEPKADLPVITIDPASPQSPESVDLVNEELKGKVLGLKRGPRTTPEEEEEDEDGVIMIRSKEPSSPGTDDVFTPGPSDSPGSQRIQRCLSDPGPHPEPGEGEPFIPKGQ
Chain of Sodium/hydrogen exchanger 3 (P26433 whole entry): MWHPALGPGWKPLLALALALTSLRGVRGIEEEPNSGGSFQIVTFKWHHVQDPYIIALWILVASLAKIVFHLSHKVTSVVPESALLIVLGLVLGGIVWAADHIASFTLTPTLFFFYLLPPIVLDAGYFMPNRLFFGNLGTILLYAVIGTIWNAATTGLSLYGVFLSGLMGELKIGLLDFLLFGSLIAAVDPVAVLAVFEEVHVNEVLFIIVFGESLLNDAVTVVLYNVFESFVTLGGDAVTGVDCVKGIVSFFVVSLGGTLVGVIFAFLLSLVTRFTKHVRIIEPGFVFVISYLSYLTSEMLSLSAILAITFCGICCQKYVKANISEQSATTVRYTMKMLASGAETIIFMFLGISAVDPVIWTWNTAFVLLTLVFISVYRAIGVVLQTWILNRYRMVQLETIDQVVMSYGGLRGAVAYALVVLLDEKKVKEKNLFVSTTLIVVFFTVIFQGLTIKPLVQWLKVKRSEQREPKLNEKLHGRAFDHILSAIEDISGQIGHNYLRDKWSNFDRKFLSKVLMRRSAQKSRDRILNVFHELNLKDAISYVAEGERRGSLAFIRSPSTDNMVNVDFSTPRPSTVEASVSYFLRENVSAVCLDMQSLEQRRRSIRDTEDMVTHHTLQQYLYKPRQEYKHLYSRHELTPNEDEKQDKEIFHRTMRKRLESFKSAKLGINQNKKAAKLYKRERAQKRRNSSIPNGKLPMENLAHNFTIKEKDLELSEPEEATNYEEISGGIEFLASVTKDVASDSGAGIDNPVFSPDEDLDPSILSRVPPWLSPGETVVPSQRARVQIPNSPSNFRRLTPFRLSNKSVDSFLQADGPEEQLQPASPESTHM

Regarding `CN1Cc2c(Cl)cc(Cl)cc2[C@H](c2ccc(S(=O)(=O)NCCOCCOCCNC(=O)NCCCCNC(=O)NCCOCCOCCNS(=O)(=O)c3cccc([C@@H]4CN(C)Cc5c(Cl)cc(Cl)cc54)c3)cc2)C1.Cl.Cl`, the Activity in the data set with Rattus norvegicus [1] stood at 90%.
Turning to `CC(=O)C(CCNC(=O)NCCOCCOCCNS(=O)(=O)c1cccc([C@@H]2CN(C)Cc3c(Cl)cc(Cl)cc32)c1)(CCNC(=O)NCCOCCOCCNS(=O)(=O)c1cccc([C@@H]2CN(C)Cc3c(Cl)cc(Cl)cc32)c1)CCNC(=O)NCCOCCOCCNS(=O)(=O)c1cccc([C@@H]2CN(C)Cc3c(Cl)cc(Cl)cc32)c1`, the Activity with Rattus norvegicus [2] came out at 42%.
In the case of `CN1Cc2c(Cl)cc(Cl)cc2[C@H](c2cccc(S(=O)(=O)NCCOCCNC(=O)CCC(CCC(=O)NCCOCCOCCNS(=O)(=O)c3cccc([C@@H]4CN(C)Cc5c(Cl)cc(Cl)cc54)c3)(CCC(=O)NCCOCCOCCNS(=O)(=O)c3cccc([C@@H]4CN(C)Cc5c(Cl)cc(Cl)cc54)c3)NC(=O)[C@H]3CCCC[C@@H]3C(=O)O)c2)C1`, in the data set with Rattus norvegicus [2], the Activity is given as 63%.
`CN1Cc2c(Cl)cc(Cl)cc2[C@H](c2cccc(S(=O)(=O)NCCOCCOCCNC(=O)NCCCCNC(=O)NCCOCCOCCNS(=O)(=O)c3cccc([C@@H]4CN(C)Cc5c(Cl)cc(Cl)cc54)c3)c2)C1`: the result with Rattus norvegicus [3] and with Rattus norvegicus [4] was Active.
`O=C(O)c1cc(/N=N/c2ccc(O)c(C(=O)O)c2)ccc1O` [OLSALAZINE] returned a bioavailability in data set [5] of 2.3%.
On the same count and under the same terms, then `OC[C@@H](O)[C@@H](O)[C@H](O)[C@H](O)CO` [MANNITOL], with 26%.
With `CN1Cc2c(Cl)cc(Cl)cc2[C@H](c2ccc(S(=O)(=O)NCCOCCOCCNCCCC(CCC(=O)NCCOCCOCCNS(=O)(=O)c3cccc([C@@H]4CN(C)Cc5c(Cl)cc(Cl)cc54)c3)(CCC(=O)NCCOCCOCCNS(=O)(=O)c3cccc([C@@H]4CN(C)Cc5c(Cl)cc(Cl)cc54)c3)NC(=O)N3CCN(CCOCCO)CC3)cc2)C1`, in the data set with Rattus norvegicus [2], the Activity is 31%.
Turning to `Cc1ccccc1N1C(=O)c2cc(S(N)(=O)=O)c(Cl)cc2NC1C` (stereo unspecified) [METOLAZONE], in data set [5], the bioavailability turned out to be 64%.
Still for that read-out and setting: then `CC(C)NCC(O)COc1cccc2[nH]ccc12` (stereo unspecified) [PINDOLOL], with 92%.
For `CN1Cc2c(Cl)cc(Cl)cc2[C@H](c2ccc(S(=O)(=O)N(C)CCOCCOCCNC(=O)CCN(CCC(=O)NCCOCCOCCN(C)S(=O)(=O)c3cccc([C@@H]4CN(C)Cc5c(Cl)cc(Cl)cc54)c3)CCC(=O)NCCOCCOCCN(C)S(=O)(=O)c3cccc([C@@H]4CN(C)Cc5c(Cl)cc(Cl)cc54)c3)cc2)C1`, the Activity with Rattus norvegicus [2] was determined as 64%.
Turning to `CN1Cc2c(Cl)cc(Cl)cc2[C@H](c2cccc(S(=O)(=O)NCCOCCOCCNC(=O)CN3CCN(CC(=O)NCCOCCOCCOCCNS(=O)(=O)c4cccc([C@@H]5CN(C)Cc6c(Cl)cc(Cl)cc65)c4)CCN(CC(=O)NCCOCCOCCOCCNS(=O)(=O)c4cccc([C@@H]5CNCc6c(Cl)cc(Cl)cc65)c4)CCN(CC(=O)NCCOCCOCCOCCNS(=O)(=O)c4cccc([C@@H]5CN(C)Cc6c(Cl)cc(Cl)cc65)c4)CC3)c2)C1`, the Activity in the data set on Rattus norvegicus [1] was determined as 82%.
For `CCCCCCCCOCCOCCOCCOCCCOCCOC(=O)NCCOCCOCCOCCNS(=O)(=O)c1cccc([C@@H]2CN(C)Cc3c(Cl)cc(Cl)cc32)c1`, in the data set on Rattus norvegicus [1], the Activity is 86%.
On to `OC[C@H]1O[C@H](OC[C@H]2O[C@H](O[C@]3(CO)O[C@H](CO)[C@@H](O)[C@@H]3O)[C@H](O)[C@@H](O)[C@@H]2O)[C@H](O)[C@@H](O)[C@H]1O` [RAFFINOSE], for which the bioavailability in [5] was 0.3%.
As to `CN1Cc2c(Cl)cc(Cl)cc2[C@@H](c2cccc(S(=O)(=O)NCCOCCOCCNC(=O)NCCCCNC(=O)NCCOCCOCCNS(=O)(=O)c3cccc([C@@H]4CN(C)Cc5c(Cl)cc(Cl)cc54)c3)c2)C1`, the inhibition result with Rattus norvegicus [6] was “inactive”.
For the compound `CCN1CCCC1CNC(=O)c1cc(S(N)(=O)=O)ccc1OC` (stereo unspecified) [SULPIRIDE], the bioavailability in data set [5] worked out at 36%.
The same measure, in the same setting: then `OC[C@H]1O[C@@H](O[C@@H]2[C@@H](CO)O[C@](O)(CO)[C@H]2O)[C@H](O)[C@@H](O)[C@H]1O` (mixture of isomers) [LACTULOSE], with 0.6%.
In the case of `CN1Cc2c(Cl)cc(Cl)cc2[C@H](c2cccc(S(=O)(=O)NCCOCCOCCNC(=O)NCCN(CCNC(=O)NCCOCCOCCNS(=O)(=O)c3cccc([C@@H]4CN(C)Cc5c(Cl)cc(Cl)cc54)c3)C(=O)CCCOCCOCCOCCOCCC(=O)N(CCNC(=O)NCCOCCOCCNS(=O)(=O)c3cccc([C@@H]4CN(C)Cc5c(Cl)cc(Cl)cc54)c3)CCNC(=O)NCCOCCOCCNS(=O)(=O)c3cccc([C@@H]4CN(C)Cc5c(Cl)cc(Cl)cc54)c3)c2)C1`, the Activity in the data set with Rattus norvegicus [1] stood at 47%.
In the case of `N=C(N)NC(=O)c1nc(Cl)c(N)nc1N` [AMILORIDE], the IC50 in [7] was 1000 to 1600 nM; in [8], 1000 nM; in data set [9], > 100000 nM; in data set [10], 21000 nM.
`O=C(O)P(=O)(O)O` [FOSCARNET]: the bioavailability in data set [5] is 17%.
The same measure, in the same setting: then `C=CCc1ccccc1OCC(O)CNC(C)C` (stereo unspecified) [ALPRENOLOL], with 96%; and `C=CCOc1ccccc1OCC(O)CNC(C)C` (stereo unspecified) [OXPRENOLOL], with 97%; and `CC(=O)Nc1ccc(OCC(O)CNC(C)C)cc1` (stereo unspecified) [PRACTOLOL], with 95%.
As to `CN1Cc2c(Cl)cc(Cl)cc2[C@@H](c2cccc(S(=O)(=O)NCCOCCOCCNC(=O)N(C)CCCN(CCCN(C)C(=O)NCCOCCOCCNS(=O)(=O)c3cccc([C@@H]4CN(C)Cc5c(Cl)cc(Cl)cc54)c3)C(=O)NCCOCCOCCNS(=O)(=O)c3cccc([C@@H]4CN(C)Cc5c(Cl)cc(Cl)cc54)c3)c2)C1`, the results for the Activity with Rattus norvegicus [1], in the data set on Rattus norvegicus [11] and in the data set with Rattus norvegicus [2] were 28%, 88% and 55%, respectively.
Regarding `Cc1cc(=O)n(-c2ccccc2)n1C` [ANTIPYRINE], the bioavailability in [5] came out at 97%.
Still for that read-out and setting: under `O=C(O)c1cc(/N=N/c2ccc(S(=O)(=O)Nc3ccccn3)cc2)ccc1O` [SULFASALAZINE] stands 12%.
Still for that read-out and setting: then `NC[C@H]1CC[C@H](C(=O)O)CC1` [TRANEXAMIC ACID], with 55%.
With `O=C(NCCCCNC(=O)NCCOCCOCCNS(=O)(=O)c1ccc(O[C@H]2c3cc(Cl)cc(Cl)c3C[C@@H]2N2CC[C@@H](O)C2)cc1)NCCOCCOCCNS(=O)(=O)c1ccc(O[C@H]2c3cc(Cl)cc(F)c3C[C@@H]2N2CC[C@@H](O)C2)cc1`, the Activity in the data set with Rattus norvegicus [1] was found to be 104%.
On to `CN1Cc2c(Cl)cc(Cl)cc2[C@H](c2cccc(S(=O)(=O)NCCOCCOCCNC(=O)CCC(CCC(=O)NCCOCCOCCNS(=O)(=O)c3cccc([C@@H]4CN(C)Cc5c(Cl)cc(Cl)cc54)c3)(CC(=O)NCCOCCOCCNS(=O)(=O)c3cccc([C@@H]4CN(C)Cc5c(Cl)cc(Cl)cc54)c3)NC(=O)CCC(=O)O)c2)C1`, for which the Activity with Rattus norvegicus [11] was found to be 49%; in the data set on Rattus norvegicus [2], 12%.
Take `CN1Cc2c(Cl)cc(Cl)cc2[C@@H](c2ccc(S(=O)(=O)NCCOCCOCCNC(=O)NCCCCNC(=O)NCCOCCOCCNS(=O)(=O)c3cccc([C@@H]4CN(C)Cc5c(Cl)cc(Cl)cc54)c3)cc2)C1.Cl.Cl`: the Activity in the data set with Rattus norvegicus [1] is reported as 68%.

The term bioavailability denotes the share of a dose that reaches the circulation, judged against a reference dose that is usually intravenous. One may read the IC50 as the concentration that gives 50% inhibition.
